Measurements from US9968566B2, “Pharmaceutical composition for prophylaxis and/or treatment of corneal and conjunctival diseases or presbyopia containing stilbene compound as active ingredient” (KEIO UNIVERSITY, priority 2014, dated 2018).
Several values for one entry are separate records, joined by “and”; a condition that tells them apart may be missing. Equal values may be shown once. Each block holds one compound with its values, some of them ahead of it.

Legend:
[1] = tested on: keratoconjunctival epithelial damage caused by dry eye; assay: Therapeutic efficacy test using smoking rat (Example 3): tear volume and fluorescein staining score; format: in vivo, Sprague-Dawley rats; details: smoking rats, 300 μM PBS solution, 5 μL instilled 4 times per day for 11 days; for average fluorescein score (fluorescent staining score): smoking group 3.7±1.0, non-smoking 0.8±1.0; for tear volume (cotton thread test, length of wet portion): smoking group 10.0±5.0, non-smoking 14.0±9.1
Protocol: In this experiment, both eyes of each animal were used. The same drug solution was administered to both eyes of each animal, and a comparison was made among groups.
Six-week-old male Sprague-Dawley rats were subjected to smoking treatment to develop dry-eye, presbyopia models.
Specifically, a treatment in which mainstream smoke (300 mL) was added to a rat-containing chamber 6 times at 30-minute intervals was performed for 12 days to induce keratoconjunctival epithelial damage. […] Each group consisted of 4 animals (8 eyes).
After the 11-day smoking treatment, the body weight, tear volume, fluorescent staining score, and crystalline lens hardness were measured.
To determine the tear volume, tears accumulated in the cornea of rat were measured in accordance with the cotton thread test. Specifically, after the rats were anesthetized with ocular instillation of oxybuprocaine hydrochloride, a cotton thread was inserted between the palpebra and eyeball for 60 seconds, and tears were collected. The tear volume was assessed by measuring the length (mm) of the wet portion in the cotton thread.
After the completion of ocular instillation, a damaged portion in corneal epithelium was stained with a fluorescent dye (fluorescein). Then, the degree of corneal epithelial damage was assessed based on the following criteria by scoring each section of the entire cornea, which was divided into a total of 9 sections, i.e., upper, middle, and lower, and left, center, and right sections, and calculating the total value. Thereafter, the score values were compared among the groups for analysis. For statistical analysis, a significant difference test was performed by using the Dunnett method in terms of each group with respect to the smoking group. For unbiased evaluation, the content of the drug solution administered to each group was blinded from the initiation of ocular instillation to the scoring of the corneal epithelial damage, and collated after scoring.
Evaluation Criteria for Scoring of Fluorescein Staining of Corneal Epithelium
• 0: not stained (no punctate fluorescence) • 1: weak punctate fluorescence • 2: relatively intense punctate fluorescence • 3: strong punctate fluorescence The crystalline lens hardness was measured by combining an electronic weighing scale and height gauge. A crystalline lens whose minor axis length had been previously measured was placed on an electronic weighing scale, and the weight was set to 0. The handle of a height gauge was used above the crystalline lens to allow the end portion to be in contact with the crystalline lens. Further using the handle, the end portion was lowered about 5 to 10% of the minor axis length to apply a pressure on the crystalline lens. The change in the weight at this time was measured with the electronic weighing scale, and the weight was divided by the moving distance measured with the height gauge. The resulting value was considered to be hardness. A larger value represents more hardness.
For statistical analysis of the body weight, tear volume, and crystalline lens hardness, a significant difference test was performed using the Dunnett method in terms of each group with respect to the smoking group.

[2] = Electron spin resonance (ESR) measurement test, amount of tyrosine radical; format: biochemical; details: 5 μM, 50 μM and 500 μM added to standard solution; activity order R<DR<DHR
Protocol: (§1) Resveratrol (R), as well as dimethyl resveratrol (DR) and dimethylhydroxy resveratrol (DHR), which are compounds of the present invention, were added to radicals serving as standard substances, and the amounts of remaining tyrosine radicals and hydroxyl radicals were assessed. Specifically, a standard solution comprising a 50 mM NaPi buffer (pH 7.4), 10 mM DMPO, 1.6 mM myoglobin, and 1 mM H2O2 was prepared using myoglobin as a tyrosine radical. Further, a standard solution comprising a 50 mM NaPi buffer (pH 7.4), 10 mM DMPO, 0.1 mM Fe^2+-EDTA, and 1 mM H2O2 was prepared using Fe^2+-EDTA as a hydroxyl radical. […] The ESR was set as follows: microwave power: 10 mW; adjusted frequency: 100 KHz; adjusted magnetic field: 0.1 G; receiver gain: 1000; and time constant: 0.3 s. FIGS. 1(A) and 1(B) show the results.

[3] = Measurement of radical scavenging activity (galvinoxyl radical, stopped flow method); format: biochemical; details: acetonitrile, deaerated with argon, absorbance at 428 nm
Protocol: Unlike active oxygen, a galvinoxyl radical (GO•), which is a relatively stable organic oxygen radical having a characteristic peak absorption at 428 nm, may be used to perform kinetic analysis in terms of the radical scavenging ability of antioxidants using ultraviolet visible spectroscopy.
In this experiment, the radical scavenging rate was measured by a stopped flow method. The following reagent was used: • Acetonitrile (Nacalai Tesque, Inc., 00433-95); and • Galvinoxyl Radical (Aldrich, G30-7).
A solution of GO• in acetonitrile (about 2.4×10^−6 M) was bubbled with argon for 7 minutes to remove molecular oxygen. […] Subsequently, the acetonitrile solutions of GO• and the compounds were simultaneously mixed to measure changes in the peak absorption of GO• (at 428 nm) over time by a stopped flow method.
Under conditions in which the concentration of each antioxidant is 10 times or more than that of GO• ([Antioxidant agent]>10[GO•]), the reduction in the absorbance at 428 nm derived from GO• follows the pseudo-first-order kinetics (equation (1)) with respect to the concentration of each antioxidant agent (antioxidant): −d[GO•]/dt=kobs[GO•] […] Integration of both sides of equation (1) leads to equation (2): ln([GO•]/[GO•]0)=−kobst (2), wherein [GO•]o is a concentration of GO• when t=0. […]

crystalline lens = assay: Smoking rat presbyopia model (Example 3): crystalline lens hardness; format: in vivo, Sprague-Dawley rats; details: smoking rats, 300 μM PBS solution, 5 μL instilled 4 times per day for 11 days; smoking group 1.04±0.05, non-smoking 0.75±0.04
Protocol: Six-week-old male Sprague-Dawley rats were subjected to smoking treatment to develop dry-eye, presbyopia models. Specifically, a treatment in which mainstream smoke (300 mL) was added to a rat-containing chamber 6 times at 30-minute intervals was performed for 12 days to induce keratoconjunctival epithelial damage. […] Each group consisted of 4 animals (8 eyes). After the 11-day smoking treatment, the body weight, tear volume, fluorescent staining score, and crystalline lens hardness were measured. • 0: not stained (no punctate fluorescence) • 1: weak punctate fluorescence • 2: relatively intense punctate fluorescence • 3: strong punctate fluorescence The crystalline lens hardness was measured by combining an electronic weighing scale and height gauge. A crystalline lens whose minor axis length had been previously measured was placed on an electronic weighing scale, and the weight was set to 0. The handle of a height gauge was used above the crystalline lens to allow the end portion to be in contact with the crystalline lens. Further using the handle, the end portion was lowered about 5 to 10% of the minor axis length to apply a pressure on the crystalline lens. The change in the weight at this time was measured with the electronic weighing scale, and the weight was divided by the moving distance measured with the height gauge. The resulting value was considered to be hardness. A larger value represents more hardness. For statistical analysis of the body weight, tear volume, and crystalline lens hardness, a significant difference test was performed using the Dunnett method in terms of each group with respect to the smoking group.

[4] = Electron spin resonance (ESR) measurement test, amount of hydroxyl radical; format: biochemical; details: 5 μM, 50 μM and 500 μM added to standard solution; activity order R<DR<DHR
Protocol: as §1

[5] = Stability test at 25° C. and 60% RH, amount by HPLC; format: physicochemical; details: for amount of compound remaining, single runs: first/second/third time
Protocol: After a constant period of time, the amount of each compound was measured by HPLC to evaluate the stability. The amount of the compound was calculated in accordance with: (The amount of compound after a constant period of time)/(the amount of compound at the time when the test was initiated)×100(%).

corneal epithelium = assay: Safety test: hematoxylin-eosin staining of rat cornea; format: in vivo; details: 300 μM PBS solution, treated for one week
Text: FIGS. 8(A) and 8(B) show photographs of each tissue section.

[6] = tested on: keratoconjunctival epithelial damage caused by dry eye; assay: Therapeutic efficacy test using smoking rat (Example 5), comparison with Diquas; format: in vivo, Sprague-Dawley rats; details: for body weight: smoking rats after 11-day treatment, instilled 5 μL 4 times per day, smoking group 280.0±5.8; for average fluorescein score (fluorescent staining score) / tear volume (cotton thread test): smoking rats, DR 300 μM in PBS or Diquas 3%, 5 μL 4 times per day for 11 days; for average fluorescein score (fluorescent staining score): smoking group 4.6±1.2, non-smoking 1.2±1.2; for tear volume (cotton thread test): smoking group 11.3±9.0, non-smoking 17.6±9.1
Protocol: In this experiment, both eyes of each animal were used. The same drug solution was administered to both eyes of each animal, and a comparison was made among groups. Six-week-old male Sprague-Dawley rats were subjected to smoking treatment to develop dry-eye models. Specifically, a treatment in which mainstream smoke (300 mL) was added to a rat-containing chamber 6 times at 30-minute intervals was performed for 12 days to induce a keratoconjunctival epithelial damage. […] The tear volume and fluorescent staining score were measured in accordance with the method described in Example 3. For statistical analysis, a significant difference test was performed using the Dunnett method in terms of each group with respect to the smoking group.

SMILES: C/C(=C(/C)c1ccc(O)c(O)c1)c1cc(O)cc(O)c1 [DHR, (E)-4-[3-(3,5-dihydroxyphenyl)but-2-en-2-yl]benzene-1,2-diol]
average fluorescein score (fluorescent staining score) [1]: 1.5±0.5 | tear volume (cotton thread test, length of wet portion) [1]: 13.8±11.1 mm | radical generation (amount of tyrosine radical, ESR) [2]: reduced radical generation in a concentration-dependent manner | radical scavenging activity (constant kHT of rate of hydrogen transfer to GO•) [3]: 2300 M⁻¹ s⁻¹ | crystalline lens elasticity (hardness; larger value = harder) (crystalline lens): 0.75±0.05 | radical generation (amount of hydroxyl radical, ESR) [4]: reduced radical generation in a concentration-dependent manner

amount of compound remaining, average ([5]; 168 h): 99% | amount of compound remaining, average ([5]; 336 h): 98% | amount of compound remaining, average ([5]; 504 h): 96% | amount of compound remaining, average ([5]; 672 h): 94% | amount of compound remaining, average ([5]; buffer, 24 h, 10 mM): 99% | amount of compound remaining, average ([5]; buffer, 48 h, 10 mM): 96% | amount of compound remaining, average ([5]; buffer, 72 h, 10 mM): 94% | amount of compound remaining, average ([5]; buffer, 168 h, 10 mM): 88% | amount of compound remaining, average ([5]; buffer, 336 h, 10 mM): 76%
SMILES: C/C(=C(/C)c1cc(O)cc(O)c1)c1ccc(O)cc1 [DR, (E)-5-[3-(4-hydroxyphenyl)but-2-en-2-yl]benzene-1,3-diol]
average fluorescein score (fluorescent staining score) [1]: 2.3±0.5 | tear volume (cotton thread test, length of wet portion) [1]: 8.3±4.9 mm | radical generation (amount of tyrosine radical, ESR) [2]: reduced radical generation in a concentration-dependent manner | morphological effects on the corneal epithelium (HE staining) (corneal epithelium): did not show morphological effects on the corneal epithelium | radical scavenging activity (constant kHT of rate of hydrogen transfer to GO•) [3]: 0.96 M⁻¹ s⁻¹ | crystalline lens elasticity (hardness; larger value = harder) (crystalline lens): 0.86±0.06 | radical generation (amount of hydroxyl radical, ESR) [4]: reduced radical generation in a concentration-dependent manner | body weight [6]: 271.0 ± 7.5 g | average fluorescein score (fluorescent staining score) [6]: 2.1±0.8 | tear volume (cotton thread test) [6]: 19.3±11.2 mm

amount of compound remaining, average ([5]; 10 mM solution (10% DMSO in water), 1 week, 25° C. 60% RH, average of three runs): 82% | amount of compound remaining, single runs ([5]; 10 mM solution (10% DMSO in water), 1 week, 25° C. 60% RH): 80% and 82% and 85% | amount of compound remaining, average ([5]; 10 mM solution (10% DMSO in water), 2 weeks, 25° C. 60% RH, average of three runs): 64% | amount of compound remaining, single runs ([5]; 10 mM solution (10% DMSO in water), 2 weeks, 25° C. 60% RH): 59% and 65% and 68% | amount of compound remaining, average ([5]; 10 mM solution (10% DMSO in water), 1 day, 25° C. 60% RH, average of three runs): 98% | amount of compound remaining, single runs ([5]; 10 mM solution (10% DMSO in water), 1 day, 25° C. 60% RH): 98% and 99% and 96% | amount of compound remaining, average ([5]; 10 mM solution (10% DMSO in water), 2 days, 25° C. 60% RH, average of three runs): 95% | amount of compound remaining, single runs ([5]; 10 mM solution (10% DMSO in water), 2 days, 25° C. 60% RH): 95% and 96% | amount of compound remaining, average ([5]; 10 mM solution (10% DMSO in water), 3 days, 25° C. 60% RH, average of three runs): 91% | amount of compound remaining, single runs ([5]; 10 mM solution (10% DMSO in water), 3 days, 25° C. 60% RH): 90% and 93% | amount of compound remaining, average ([5]; solid, 1 week, 25° C. 60% RH, average of three runs): 99% | amount of compound remaining, single runs ([5]; solid, 1 week, 25° C. 60% RH): 100% and 101% and 97% | amount of compound remaining, average ([5]; solid, 2 weeks, 25° C. 60% RH, average of three runs): 95% | amount of compound remaining, single runs ([5]; solid, 2 weeks, 25° C. 60% RH): 96% and 94% | amount of compound remaining, average ([5]; solid, 3 weeks, 25° C. 60% RH, average of three runs): 91% | amount of compound remaining, single runs ([5]; solid, 3 weeks, 25° C. 60% RH): 91% and 90% and 92% | amount of compound remaining, average ([5]; solid, 4 weeks, 25° C. 60% RH, average of three runs): 86% | amount of compound remaining, single runs ([5]; solid, 4 weeks, 25° C. 60% RH): 88% and 86% and 85%
SMILES: Oc1ccc(/C=C/c2cc(O)cc(O)c2)cc1 [Resveratrol, trans-1,2-(3,4′,5-trihydroxydiphenyl)ethylene, reference compound]
tear volume (cotton thread test, length of wet portion) [1]: 6.9±4.3 mm | radical generation (amount of tyrosine radical, ESR) [2]: reduced radical generation in a concentration-dependent manner | crystalline lens elasticity (hardness; larger value = harder) (crystalline lens): 0.87±0.06 | radical generation (amount of hydroxyl radical, ESR) [4]: reduced radical generation in a concentration-dependent manner

SMILES: O=c1ccn([C@@H]2O[C@H](COP(=O)(O)OP(=O)(O)OP(=O)(O)OP(=O)(O)OC[C@H]3O[C@@H](n4ccc(=O)[nH]c4=O)[C@H](O)[C@@H]3O)[C@@H](O)[C@H]2O)c(=O)[nH]1 [diquafosol sodium, reference compound]
body weight [6]: 273.8 ± 4.3 g | average fluorescein score (fluorescent staining score) [6]: 4.3±1.6 | tear volume (cotton thread test) [6]: 11.0±6.5 mm
